Measurements: PubChem BioAssay AID1645865 (Buhrlage Lab, Dana-Farber Cancer Institute and Novartis …, 2021)
Active and inactive are the calls of the source.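 The calls were made as follows: active = maximal inhibition of the USP30 enzyme reaching 30% or more across the dose series; inactive = the rest.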

The compounds below were run against Ubiquitin carboxyl-terminal hydrolase 30 (Homo sapiens) (UniProt Q70CQ3) (assay: inhibitors of ubiquitin-specific protease 30 deubiquitylating enzyme, concentration dependence, in vitro biochemical, validation of primary hits (AID 1645865)). Settings: purified USP30, Ub-rhodamine cleavage, fluorescence, 2 h.
Sequence of Ubiquitin carboxyl-terminal hydrolase 30 (Homo sapiens) (Q70CQ3 whole entry, looked up): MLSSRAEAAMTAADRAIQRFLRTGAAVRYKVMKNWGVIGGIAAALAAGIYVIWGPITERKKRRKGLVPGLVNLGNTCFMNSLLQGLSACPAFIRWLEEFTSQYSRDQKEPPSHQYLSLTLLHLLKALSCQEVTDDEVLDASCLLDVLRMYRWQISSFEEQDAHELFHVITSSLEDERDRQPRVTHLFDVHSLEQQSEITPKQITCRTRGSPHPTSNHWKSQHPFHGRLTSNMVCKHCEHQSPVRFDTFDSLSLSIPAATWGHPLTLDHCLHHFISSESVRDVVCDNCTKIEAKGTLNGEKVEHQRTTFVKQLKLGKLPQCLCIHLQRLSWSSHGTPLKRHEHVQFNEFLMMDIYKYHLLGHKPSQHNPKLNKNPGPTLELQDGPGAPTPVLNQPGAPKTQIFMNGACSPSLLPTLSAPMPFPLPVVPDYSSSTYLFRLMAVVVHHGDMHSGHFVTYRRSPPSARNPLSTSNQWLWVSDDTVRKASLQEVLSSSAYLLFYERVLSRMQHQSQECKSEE
Compound `COc1c(Cl)ccc2c(=O)c3c(O)c4c5c(c3oc12)OCO[C@H]5[C@@H](OC)c1cc2c(c(O)c1-4)C(=O)N(C)[C@H](OC)[C@@H]2O` has an IC50 of 4.94 µM.
In the case of `O=C(OC1CSc2nc3ccccc3n2C1)c1ccc([N+](=O)[O-])o1` (stereo not drawn), the IC50 is reported as 43.1 µM.
`CC(C)NC(=O)Cn1ccn2nc(-c3ccc(Cl)cc3)cc2c1=O` showed an IC50 of 3.6 µM.
Compound `CC(=O)Nc1cc(-c2cccc(O)c2)cn2c(-c3cnn(C)c3)cnc12` has an IC50 of 2.9 µM.
`COc1ccc(CNC(=O)c2ccccc2N2C(=O)N3CCc4c([nH]c5ccccc45)[C@@]3(C)C2=O)cc1` was tested, and the IC50 was 27.3 µM.
With `N=C1C(c2nc3ccccc3s2)=C(O)CN1Cc1ccc(F)cc1` the IC50 was > 50 µM (inactive).
In the case of `O=C(/C=C/c1ccco1)c1cccc([N+](=O)[O-])c1`, the IC50 is reported as 40.1 µM.
`COC(=O)COc1ccc(/C=N/NC(=O)c2ccc(CN3CCc4ccccc4C3)cc2)cc1` showed an IC50 of 26.7 µM.
In the case of `Cc1ccc(-c2nc(NC(=O)COc3ccc(Cl)cc3)no2)cc1`, the IC50 is reported as 1.35 µM.
In the case of `O=C(Nc1nc2c(s1)COCC2)c1cc(-c2ccco2)[nH]n1`, the IC50 is reported as > 50 µM (inactive).
`COC1/C=C/OC2(C)Oc3c(C)c(O)c4c(c3C2=O)C(=O)C=C(NC(=O)/C(C)=C\C=C\C(C)C(O)C(C)C(O)C(C)C(OC(C)=O)C1C)C4=O` (stereo not drawn) was tested, and the IC50 was > 50 µM (inactive).
In the case of `N#Cc1cc2c(nc1SCC(=O)NCc1ccccc1)CCCC2`, the IC50 is reported as > 50 µM (inactive).
`CCOC(=O)c1cc2c(ccn2C)n1Cc1cccc2ccccc12` was tested, and the IC50 was > 50 µM (inactive).
For `CCNc1nc(SCC(C)=O)nc2sc3c(c12)CCC(C)C3` (stereo not drawn), the IC50 was > 50 µM (inactive).
For `CCOc1ccc(CCNC(=O)c2ccc3c(c2)N(CC)C(=O)c2ccccc2S3)cc1OCC`, the IC50 was > 50 µM (inactive).
`COc1ccc(OC)c2c(C)cc(N3CCN(S(=O)(=O)c4ccc5c(c4)CCCN5S(C)(=O)=O)CC3)nc12` gave an IC50 of 20.9 µM.
`Cc1c(OCC(=O)Nc2nc3ccccc3[nH]2)ccc2c3c(c(=O)oc12)CCC3` gave an IC50 of 0.148 µM.
Compound `CC1=C(c2ccc(F)cc2)S(=O)(=O)NC1=NCC(=O)Nc1cccc(F)c1` has an IC50 of 19.8 µM.
Work on `COc1cccc(CNC(=O)c2ccc(CSc3nc4ccncc4n3Cc3ccccc3F)cc2)c1` yielded an IC50 of 29.2 µM.
For `O=C(NC1CCS(=O)(=O)C1)c1ccc(N2CCC(Cc3ccccc3)CC2)nn1` (stereo not drawn), the IC50 was > 50 µM (inactive).
Compound `CC(Nc1ncnc2c1sc1nc(N3CCOCC3)c3c(c12)CCC3)c1ccccc1` (stereo not drawn) has an IC50 of 3.65 µM.
`Cc1cc(C(=O)CN2CCN(Cc3ccc4c(c3)OCO4)CC2)c(C)n1-c1ccc2c(c1)OCO2` was tested, and the IC50 was > 50 µM (inactive).
`Cc1ccc2cc(CNc3ccccc3)c(=O)n(CC(=O)Nc3ccccc3C)c2c1` showed an IC50 of 40.7 µM.
With `CC(CCc1ccccc1)NC(=O)C(=O)c1cn(CC(=O)N2CCOCC2)c2ccccc12` (stereo not drawn) the IC50 was > 50 µM (inactive).
`CSc1ncc(C(=O)NC(C)c2ccccc2)c(-c2ccccc2)n1` (stereo not drawn) gave an IC50 of 21.9 µM.
In the case of `COC(=O)c1ccccc1NC(=O)CSc1nnc(-c2ccc(C(C)(C)C)cc2)n1C1CCCC1`, the IC50 is reported as 33.8 µM.
`COc1cc(OC)c(NC(=O)Cn2c(=O)n(Cc3ccccc3Cl)c(=O)c3cc(OC)c(OC)cc32)cc1Cl` showed an IC50 of 2.28 µM.
In the case of `COC1=C(C2=C(OC)C(=O)c3cc4c(c(O)c3C2=O)C(=O)OC(C)C4)C(=O)c2c(cc3c(c2O)C(=O)OC(C)C3)C1=O` (stereo not drawn), the IC50 is reported as > 50 µM (inactive).
With `Cc1cc(=O)c2c(O)oc(O)c3c(O)cc(=O)c1c32` the IC50 was > 50 µM (inactive).
In the case of `Cc1noc(NS(=O)(=O)c2ccc(NC(=O)CSc3ccc4ccccc4c3)cc2)c1C`, the IC50 is reported as > 50 µM (inactive).
For `CCOC(=O)Nc1ccc(N2CCn3c(nc4ccccc43)C2)cc1OC`, the IC50 was > 50 µM (inactive).
`O=C(Nc1cc(F)c2nc(N3CCOCC3)ccc2c1)c1ccc(Br)o1` was tested, and the IC50 was > 50 µM (inactive).
For `C/C=C1/C2=CCCN3C(=O)O[C@H]([C@H]1O)[C@H]23`, the IC50 was > 50 µM (inactive).
In the case of `Cc1cccc(OCCn2c(CCNC(=O)C3CCCCC3)nc3ccccc32)c1`, the IC50 is reported as 20.2 µM.
With `O=C(CCSc1ccc(Cl)cc1)c1cccs1` the IC50 was 20.2 µM.
`CSc1cccc(NC(=O)COc2cccc3ccccc23)c1` gave an IC50 of 1.46 µM.
`Cn1nc(-c2nc(-c3ccccc3)no2)c2c1CCN(C(=O)C1CC1)C2` was tested, and the IC50 was > 50 µM (inactive).
Work on `Cc1nc(Nc2ncc(C)s2)cc(C2CN(C(=O)Cc3ccccc3)CCO2)n1` (stereo not drawn) yielded an IC50 of 33.7 µM.
In the case of `CCn1cc2c(n1)c(=O)n(Cc1ccc(C)cc1)c(=O)n2CC(=O)Nc1ccc(F)cc1`, the IC50 is reported as 3.47 µM.
For `COc1cccc(N2CCN(C(=O)CCNS(=O)(=O)c3ccc4c(c3)CCC(=O)N4)CC2)c1`, the IC50 was > 50 µM (inactive).
With `O=C(Nc1ccccc1-c1nc2ccccc2[nH]1)c1sc2ccccc2c1Cl` the IC50 was 1.76 µM.
`O=C(CCC1CCCCC1)Nc1ccccc1C(=O)N1CCOCC1` was tested, and the IC50 was > 50 µM (inactive).
With `O=C(c1ccc2cc[nH]c2c1)N1CCC(Nc2cccnc2)C1` (stereo not drawn) the IC50 was > 50 µM (inactive).
For `CC(CCc1ccccc1)NC(=O)Cn1c(=O)c2cccn2c2ccccc21` (stereo not drawn), the IC50 was 4.37 µM.
For `Cc1cc(-n2c(C)cc(-c3csc(N)n3)c2C)no1`, the IC50 was > 50 µM (inactive).
With `COc1cccc(N2C(=O)N(CC(=O)NCc3ccc(Cl)cc3)c3ccccc3S2(=O)=O)c1` the IC50 was 17 µM.
For `CC1CCN(C(=O)c2cn(-c3cc(N4CCC(C)CC4)ncn3)cn2)CC1`, the IC50 was > 50 µM (inactive).
With `Cc1ccccc1Cn1ccc(NC(=O)c2noc(C)c2[N+](=O)[O-])n1` the IC50 was > 50 µM (inactive).
Work on `Cc1nc2ccccc2nc1SCC(=O)Nc1ccc2c(c1)OCO2` yielded an IC50 of 40.3 µM.
Compound `Cc1ccccc1NC(=O)CNc1nc(Nc2ccccc2)nc(Nc2ccccc2)n1` has an IC50 of 26.4 µM.
For `CC1=C(c2ccc(Cl)cc2)S(=O)(=O)NC1=NCC(=O)Nc1ccc(F)cc1`, the IC50 was 17 µM.
`COc1ccc(NC(=O)c2nnn(-c3ccccc3)c2C)cc1OC` was tested, and the IC50 was > 50 µM (inactive).
`CSc1ccc(CNC(=O)CC2CCN(S(=O)(=O)c3ccc(C)cc3)CC2)cc1` showed an IC50 of 20.2 µM.
Compound `Cc1c(C)n(-c2ccccc2)c2ncn(CC(=O)NC(C)c3ccccc3)c(=O)c12` (stereo not drawn) has an IC50 of 23 µM.
`Nc1c(C(=O)NCc2ccc3c(c2)OCO3)nnn1Cc1ccc(Br)cc1F` showed an IC50 of 2.35 µM.
In the case of `CO[C@H]1CC[C@H](O)c2c1oc1c3c4c(c(O)c1c2=O)-c1c(cc2c(Cl)c(C)n(N)c(=O)c2c1O)C[C@@H]4OCO3`, the IC50 is reported as 47.3 µM.
For `O=C(CN(Cc1ccc(Cl)cc1)S(=O)(=O)c1ccc(Cl)cc1)N1CCOCC1`, the IC50 was > 50 µM (inactive).
`Cc1cccc(NC(=O)Cn2c(N3CCOCC3)nc3cc(C)n(C)c3c2=O)c1` gave an IC50 of 20.9 µM.
`COc1ccccc1-c1nc2c3c(ncn2n1)Oc1c(c(C)nn1-c1ccccc1)C3c1cccnc1` (stereo not drawn) was tested, and the IC50 was 2.85 µM.
For `Cn1c(=O)cc(SCC(=O)NC2CCN(Cc3ccccc3)CC2)c2ccc(Cl)cc21`, the IC50 was 28.8 µM.
With `COc1ccc(NC(=O)CSc2oc(-c3ccc(C)cc3)nc2S(=O)(=O)c2ccc(Br)cc2)c(OC)c1` the IC50 was > 50 µM (inactive).
`O=c1[nH]c2ccccc2cc1CN(Cc1ccco1)S(=O)(=O)c1ccc(F)cc1` was tested, and the IC50 was > 50 µM (inactive).
In the case of `COc1ccc(C)cc1NC(=O)Cc1csc(NC(=O)c2ccc(=O)[nH]c2)n1`, the IC50 is reported as > 50 µM (inactive).
With `COc1ccc(-c2cc(C(=O)NC3CCCCCC3)[nH]n2)cc1S(=O)(=O)N(C)C` the IC50 was 22.9 µM.
For `Cc1cnc2nc3c(cc2c1)CN(S(=O)(=O)c1cc(F)ccc1C)CC3`, the IC50 was > 50 µM (inactive).
`COc1ccc(OC)c(-n2c(SCC(=O)N3CCc4ccccc43)nnc2-c2cccc(S(=O)(=O)N(C)C)c2)c1` was tested, and the IC50 was 3.12 µM.
`COc1cccc(CNC(=O)c2ccc3c(c2)NC(=O)C2CCCN32)c1OC` (stereo not drawn) was tested, and the IC50 was > 50 µM (inactive).
`CC(=O)N1CCc2cc(S(=O)(=O)NCCC(=O)Nc3cccc(C)c3C)ccc21` showed an IC50 of 39 µM.
